Assay results as given in US9145398B2, “Methods of treating CXCR4-expressing cancers” (University of Louisville Research Foundation, Inc., priority 2010, dated 2015).

Legend:
[1] = biological target: T1, hCXCR4-GFP (Homo sapiens, UniProt P61073); assay: Intracellular calcium mobilization assay, hCXCR4-GFP expressing 300.19 cells, CXCL12; type: cell-based; parameters: IC50 of intracellular calcium mobilization, CXCR4; other: CXCL12-mediated; other: 50 μM test compound; normalized Δ fluorescence (CXCR4, intracellular calcium mobilization); other: 50 μM test compound, 60 seconds pretreatm; conditions: CXCL12-mediated; read-out: IC50 of intracellular calcium mobilization, CXCR4
Description: (§1) Intracellular Calcium Mobilization Assay Method: The intracellular calcium mobilization assay used 300.19 cells which stably expressed hCXCR4-GFP, as described previously in Pello et al. (2008). Cells were loaded with INDO-I and then pretreated with the 50 μM of the test compound for 60 seconds prior to stimulation of intracellular calcium mobilization with an optimized concentration of CXCL12. […] The value Δ florescence is the difference between (a) the fluorescence ratio from cells before exposure to CXCL12 at its optimized concentration and (b) the fluorescence ratio from cells following stimulation with the optimized concentration of CXCL12. Decreases in Δ florescence correspond to decreases in intracellular calcium mobilization, and therefore, decreased signaling. As CXCL12 concentration was optimized for each test compound, results are presented as normalized Δ florescence which is Δ fluorescence divided by the fluorescence ratio of optimized CXCL12-only stimulation. In some instances, the IC50 concentration (concentration at which intracellular calcium mobilization is reduced to 50% of the Δ fluorescence of the CXCL12 plus DMSO control) of the test compounds was determined. All assays were performed a minimum of four times; error bars represent the standard deviation of the mean.

[2] = system: 300.19 cells; assay: Cytotoxicity assay, propidium iodide based flow cytometry; type: cell-based; conditions: for cytotoxicity, percentage of cells staining positive for PI: 50 μM test compound; for cytotoxicity in dose response below 50 μM: 10 μM, 5 μM and 1 μM tested
Description: Cytotoxicity Assay Method: To determine the potential for test compound cytotoxicity to influence cell intracellular calcium mobilization and chemotaxis, cell cytotoxicity was assessed using propidium iodide (PI) based flow cytometry. Propidium iodine is impermeable to intact cell membranes and thus its lack of intercalation into DNA (which increases PI fluorescence) is a positive indicator of cell viability. Cytotoxicity values are presented as percentage of cells staining positive for PI. Lower values of fluorescence indicate less cytotoxicity. All assays were performed a minimum of four times; error bars represent the standard deviation of the mean.

[3] = system: A549 cells; assay: MTT cell proliferation assay, A549; type: cell-based, human; conditions: 4 days; for IC50: Homo sapiens, A549, 96 h
Description: (§2) To determine the potential for compounds to impact the proliferation of cells, cell growth was assessed capacity using the 3-(4,5-dimethylthiazol-2-yl)-2,5-diphenyltetrazolium bromide (MTT) assay. The effect of these compounds was determined for four cell lines: HS27, a “normal” fibroblast cell line; MCF7, an estrogen-dependant non-metastatic breast cancer cell line; MDA-MB-231, an estrogen-independent metastatic breast cancer cell line; and A549, a lung cancer cell line. Cells were left untreated, treated with 12.5 mM DMSO, or treated with varying concentrations of four compounds, (I-9, I-25, I-36, and I-37), then incubated for 4 days, before analysis. Absorbance at 490 nm represents proliferating cells. For samples using compounds, these values are normalized to untreated samples.

[4] = biological target: T2, BLT1 (Homo sapiens, UniProt Q15722); assay: Intracellular calcium mobilization assay, cells expressing BLT1, LTB4; type: cell-based; conditions: LTB4-mediated
Description: as §1
At 50 μM test compound concentrations in BLT1-expressing cells, I-44 (0.040) and I-46 (0.017) inhibited intracellular calcium mobilization.

[5] = system: MDA-MB-231 cells; assay: MTT cell proliferation assay, MDA-MB-231; type: cell-based, human; conditions: 4 days; for IC50: Homo sapiens, MDA-MB-231, 96 h
Description: as §2

[6] = system: HS27 cells; assay: MTT cell proliferation assay, HS27; type: cell-based, human; conditions: 4 days, normal fibroblast cell line
Description: as §2

[7] = system: MCF7 cells; assay: MTT cell proliferation assay, MCF7; type: cell-based, human; conditions: 4 days; for IC50: Homo sapiens, MCF7, 96 h
Description: as §2

[8] = system: hCXCR4-GFP; assay: Intracellular calcium mobilization assay, hCXCR4-GFP expressing 300.19 cells, CXCL12; type: cell-based, human; conditions: 50 μM test compound
Description: as §1

[9] = biological target: T1, hCXCR4-GFP; assay: Chemotaxis assay, hCXCR4-GFP expressing 300.19 cells, CXCL12; type: cell-based; conditions: for chemotaxis index (CXCR4-mediated): 50 μM test compound plus optimized CXCL12, normalized to CXCL12 plus DMSO control; for IC50: hCXCR4-GFP 300.19 cells, CXCL12
Description: (§3) Cells were suspended in chemotaxis buffer (RPMI 1640, 1% fetal bovine serum, 1 mM HEPES) at a concentration of 1×10^7 cells per ml. Cell chemotaxis was determined by examining the migration of the 300.19 cells in response to administration of 50 μM test compound plus an optimized concentration of CXCL12 using a chemotaxis assay that was previously described in Basu et al. (Basu et al., Critical role for polar residues in coupling leukotriene B4 binding to signal transduction in BLT1, J. Biol. Chem. (2007) Vol. 282, pp. 10005-17). 100 μL of 300.19 cells from the above cell suspension were placed in the upper chamber of a Transwell support (Corning Costar, Cambridge, Mass.) and were separated by a 5 micron filter from a bottom chamber containing 50 μM test compound plus the optimized concentration of CXCL12 in a final bottom chamber volume of 600 μl. After 3 h of incubation at 37° C. in 5% CO2, the upper chamber was removed and cells in the lower chamber were counted in a Bürker chamber. Cell counts for all samples were normalized to a CXCL12 plus DMSO control and results are reported using this normalized measure, referred to herein as the chemotaxis index. In some instances, the IC50 concentration (i.e., the concentration at which the chemotaxis index is reduced to 50% of the chemotaxis index of the CXCL12 plus DMSO control) of the test compounds was determined. All assays were performed a minimum of four times; error bars represent the standard deviation of the mean.

[10] = system: hCXCR4-GFP; assay: as above; type: cell-based, human; conditions: from chemotaxis indices at 50 μM
Description: as §3

[11] = biological target: T2, BLT1; assay: Chemotaxis assay, cells expressing BLT1, LTB4; type: cell-based; conditions: 50 μM test compound, LTB4-induced
Description: as §3
To examine specificity of some of the compounds for CXCR4, their activity was tested against a non-family member class A G protein-coupled receptor, BLT1. […] I-38 and I-43 inhibited BLT1-mediated chemotaxis (0.23) and (0.045) to about the same extent as CXCR4-mediated chemotaxis (0.21) and (0.064), respectively.

[12] = Test for toxicity in mice; type: in vivo; conditions: i.p. 5 mg/kg, then 20 or 40 mg/kg two days later; observed over 3 weeks
Description: Test for Toxicity: Mice were treated by intra-peritoneal injections of three of compounds I-28, I-36, and I-38 at the first dose of 5 mg/kg of body weight, followed by a second injection of either 20 mg/kg of body weight or 40 mg/kg of body weight two days later.

[13] = system: TC-1 tumor cells; type: in vivo; conditions: 5 mg/kg i.p. every day for 21 days; versus PBS or Vehicle controls
Description: Development of Animal Model for CXCR4 Dependent Cancer Metastasis in Lungs: To establish a CXCR4 dependent lung tumor metastasis model, we first screened several cancer cell lines that are known to metastasize to lungs in mice models to determine which cancer cell lines endogenously express CXCR4 receptor. The mice cell lines screened were Lewis lung carcinoma, B16F10 melanoma, and TC-1 cervical carcinoma. Mice cell lines were screened using flow cytometry-based surface receptor staining using a fluorochrome labeled antibody to mouse CXCR4 receptor. […] The TC-1 cell line was generated by transfection of murine lung squamous epithelial cells by Human pappillomavirus (HPV) oncogenes E6, E7, and activated Ras.
5 mg/kg body weight of AMD3100, I-28, I-36, or I-38 were also injected at the same dose intra-peritoneal (i.p.) every day for 21 days starting from the day before the tumor cell injection. Mice were sacrificed and lungs were perfused and collected on day 21 post tumor challenge. Lungs were stored in formalin for 16 hrs and then transferred into 70% ethanol until the lung lobes became lucid. All five lung lobes were separated. Tumors were counted using a magnifying glass or a microscope. Tumor sizes were measured using a digital caliper. The total number of tumors counted in all five lung lobes of an individual mouse is reported as the tumor incidence. Mean tumor sizes were added together to calculate cumulative tumor size, which is reported as the tumor burden for each mouse.

T1 sequence (P61073 whole entry): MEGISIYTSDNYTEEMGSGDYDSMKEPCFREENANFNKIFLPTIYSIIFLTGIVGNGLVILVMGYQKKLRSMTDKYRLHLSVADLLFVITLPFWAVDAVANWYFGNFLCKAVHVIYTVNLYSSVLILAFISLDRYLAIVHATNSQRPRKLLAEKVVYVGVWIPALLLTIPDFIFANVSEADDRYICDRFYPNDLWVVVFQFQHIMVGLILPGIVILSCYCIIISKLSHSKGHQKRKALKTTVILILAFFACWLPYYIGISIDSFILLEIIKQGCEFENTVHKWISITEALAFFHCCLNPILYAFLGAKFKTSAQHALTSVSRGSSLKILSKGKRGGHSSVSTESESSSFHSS
T2 sequence (Q15722 whole entry, species assumed): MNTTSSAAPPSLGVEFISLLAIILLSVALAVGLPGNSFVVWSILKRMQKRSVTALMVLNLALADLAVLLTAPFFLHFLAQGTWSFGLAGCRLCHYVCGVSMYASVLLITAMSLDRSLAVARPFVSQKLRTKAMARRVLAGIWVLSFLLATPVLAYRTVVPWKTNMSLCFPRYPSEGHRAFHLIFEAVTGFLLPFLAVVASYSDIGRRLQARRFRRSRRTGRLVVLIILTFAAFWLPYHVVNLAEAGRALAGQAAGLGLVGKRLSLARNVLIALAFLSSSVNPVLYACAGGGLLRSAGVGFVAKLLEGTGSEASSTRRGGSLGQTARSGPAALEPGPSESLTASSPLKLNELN

Row | SMILES | IC50 [1] [µM] | IC50 [3] [µM] | IC50 [4] [µM] | IC50 [5] [µM] | chemotaxis index (CXCR4-mediated) [9] | chemotaxis index (BLT1-mediated) [11] | cytotoxicity, percentage of cells staining positive for PI [2] [%] | cytotoxicity in dose response below 50 μM [2] | proliferation inhibition, HS27 (in words) [6] | IC50 [7] [µM] | difference between CXCR4- and BLT1-mediated intracellular calcium mobilization [8] | fold greater inhibition of CXCR4-mediated than BLT1-mediated chemotaxis [10] [fold] | proliferation inhibition, MCF7 (in words) [7] | apparent toxicity (loss of body weight, signs of physiological distress) [12] | TC-1 metastatic tumor incidence and burden in lungs [13] | IC50 [9] [µM] | proliferation inhibition, A549 (in words) [3] | proliferation inhibition, MDA-MB-231 (in words) [5]
1 | Cc1ccc(N2C(=O)/C(=C/Nc3ccc(S(=O)(=O)Nc4ccc(O)cc4)cc3)c3ccccc3C2=O)cc1C [Compound I-28, 4-[[2-(3,4-dimethylphenyl)-1,3-dioxo-4-isoquinolylidene]methylamino]-N-(4-hydroxyphenyl)-benzenesulfonamide] | 10 | – | 22.5 | – | – | – | – | – | – | – | no significant difference | – | – | did not induce any apparent toxicity | reduced mice TC-1 metastatic tumor incidence and burden in lungs | – | – | –
2 | CCn1c2ccccc2c2ccc(Nc3nc4ccccc4nc3NS(=O)(=O)c3ccc(C)cc3)cc21 [Compound I-36, N-[3-(9-ethylcarbazol-2-yl)aminoquinoxalin-2-yl]-4-methyl-benzenesulfonamide] | – | 22.5 | – | 30 | 0.12 | 0.44 | 21.0 | no cytotoxicity beyond the initial 50 μM screening concentration | marginal proliferation inhibition at higher concentrations | 12.5 | – | 3.5 | – | did not induce any apparent toxicity | reduced mice TC-1 metastatic tumor incidence and burden in lungs | 1 | – | –
3 | Cc1ccc(NCC(=O)Nc2ncc(Cc3cccc(C(F)(F)F)c3)s2)cc1C [Compound I-37, 2-(3,4-dimethylphenyl)amino-N-[5-[[3-(trifluoromethyl)phenyl]methyl]thiazol-2-yl]-acetamide] | – | – | – | – | – | – | – | – | did not inhibit proliferation for any tested cell line | – | – | – | did not inhibit proliferation for any tested cell line | – | – | – | did not inhibit proliferation for any tested cell line | did not inhibit proliferation for any tested cell line

Further lines, with some results ahead:

Row | IC50 [1] [µM] | IC50 [3] [µM] | IC50 [4] [µM] | IC50 [5] [µM] | chemotaxis index (CXCR4-mediated) [9] | chemotaxis index (BLT1-mediated) [11] | SMILES | cytotoxicity, percentage of cells staining positive for PI [2] [%] | cytotoxicity in dose response below 50 μM [2] | proliferation inhibition, HS27 (in words) [6] | IC50 [7] [µM] | difference between CXCR4- and BLT1-mediated intracellular calcium mobilization [8] | fold greater inhibition of CXCR4-mediated than BLT1-mediated chemotaxis [10] [fold] | proliferation inhibition, MCF7 (in words) [7] | apparent toxicity (loss of body weight, signs of physiological distress) [12] | TC-1 metastatic tumor incidence and burden in lungs [13] | IC50 [9] [µM] | proliferation inhibition, A549 (in words) [3] | proliferation inhibition, MDA-MB-231 (in words) [5]
4 | 1 | 7.5 | 20 | 5 | – | – | COc1cc(NCCCC(C)Nc2ccnc3cc4ccccc4cc23)c2ncccc2c1 (centres unmarked) [Compound I-9, N-(5-(6-methoxyquinolin-8-ylamino)pentan-2-yl)benzo[g]quinolin-4-amine] | 81.2 | no cytotoxicity beyond the initial 50 μM screening concentration | consistently inhibited cell proliferation even at concentrations nearing 1 μM | 5 | no significant difference | – | – | – | – | – | – | –
5 | 1 | 10 | 40 | 10 | 0.030 | 0.38 | CN(C)c1cccc(Nc2nc3ccccc3nc2NS(=O)(=O)c2ccc([N+](=O)[O-])cc2)c1 [Compound I-25, N-[3-(3-dimethylaminophenyl)aminoquinoxalin-2-yl]-4-nitro-benzenesulfonamide] | 23.4 | no cytotoxicity beyond the initial 50 μM screening concentration | marginal proliferation inhibition at higher concentrations | – | – | 12 | only marginally inhibited cell proliferation of MCF7 cells at high concentrations | – | – | – | – | –
6 | – | – | – | – | 0.064 | 0.045 | CN1C/C(=C/c2cccnc2)C(=O)/C(=C/c2cccnc2)C1 [Compound I-43, (3E,5Z)-1-methyl-3,5-bis((pyridin-3-yl)methylene)piperidin-4-one] | – | – | – | – | – | – | – | – | – | 20 | – | –
